Counter-ions that a name gives are not always drawn.
Assays:
sonic hedgehog pathway [1] = assay: Hedgehog reporter assay (gli-luciferase) in TM3 cells; assay type: cell-based, mouse; details: TM3 mouse Leydig cells, gli-luciferase reporter; read-out: TM3 Avg. EC50
Text: (§1) Mouse (TM3: mouse Leydig cells; S12: mouse embryonic mesenchymal cells) and human (Daoy: human medulloblastoma cell; HepM: human embryonic palatal mesenchymal cell) cell lines are used to screen small molecules for their ability to modulate the activity of the sonic hedgehog pathway (Table 1, Table 2, and Table 3). Stable hedgehog pathway reporter cell lines are established by specific antibiotic selection following transfection of a reporter plasmid containing a luciferase gene located directly downstream from the gli promoter. Consequently, any observable changes in cellular luciferase activity may be attributed to changes in sonic hedgehog pathway activity in mouse and human cells, respectively, since gli is the major by-product of this pathway. To calculate activity, we generate an eleven point dose curve for each compound using 1:3 dilutions in 96 well assay plates. Each plate tested also contains low and high control to establish maximal pathway activation so to establish/compare a percentage activation of each tested compound (AMAX) on respective plates.
(§2) Stable hedgehog pathway reporter cell lines are established following specific antibiotic selection following transfection of a reporter plasmid
(§3) In short, typically cells are plated in MicroTiter-plates at 10,000-20,000 cells per well, in growth media (containing 10%-20% FBS). After 48-72 hrs (HGL and DGL respectively) the media in the assay plates is switched to low-serum containing media (0.5% FBS). At that time compounds are added (at 1-5 μM) to the assay plates, in the presence or absence of hedgehog protein (octyl-modified version; 1-5 ng/ml). After another 24 hrs of incubation, the media from the assay plates is discarded and replaced with luciferase assay-mix. Subsequently, plates are incubated at RT for ˜15-30 mins and then read in a luminometer. [note: addition of the Hedgehog protein, although not critical, will sensitize the assay allowing the identification of weak actives].

sonic hedgehog pathway [2] = assay: Human hedgehog reporter assay HEPM-GliLuc (HGL); assay type: cell-based; details: HepM human embryonic palatal mesenchymal cells, gli-luciferase reporter; read-out: HEPM Avg. EC50
Text: as §1, §2, §3

sonic hedgehog pathway [3] = assay: Hedgehog reporter assay (gli-luciferase) in S12 cells; assay type: cell-based; details: S12 mouse embryonic mesenchymal cells, read-out: S12 Avg. EC50
Text: as §1, with “respective plates. Also we calculate EC50 values, or a concentration where the pathway will be exactly 50% activated, for each tested compound to determine potency. In these cell lines, compounds that register >20% AMAX values are considered active.” for “respective plates.”
as §2, §3

sonic hedgehog pathway [4] = assay: Human hedgehog reporter assay Daoy-GliLuc (DGL); assay type: cell-based; details: Daoy human medulloblastoma cells, gli-luciferase reporter; read-out: Daoy Avg. EC50
In short: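 Stable gli-luciferase reporter lines (mouse TM3; human Daoy and HEPM) switched to 0.5% FBS medium, given compounds at 1-5 μM with or without octyl-modified hedgehog protein (1-5 ng/ml) for 24 hrs. Luminescence read; eleven-point 1:3 dose curves, activation expressed as percentage of plate controls (AMAX).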

| EC50 (sonic hedgehog pathway [1]) [µM] | EC50 (sonic hedgehog pathway [4]) [µM] | SMILES | EC50 (sonic hedgehog pathway [2]) [µM] | EC50 (sonic hedgehog pathway [3]) [µM] |
| --- | --- | --- | --- | --- |
| < 0.05 | – | CN[C@H]1CC[C@@H](N(Cc2cc(-c3ccnc(C)c3)ccc2OC)C(=O)C2=C(Cl)c3c(C)ccc(F)c3C2)CC1 [Compound 355] | < 0.05 | < 0.05 |
| < 0.05 | – | CNC1CCC(N(Cc2cc(-c3ccc(NS(C)(=O)=O)nc3)ccc2OC)C(=O)c2sc3c(F)ccc(F)c3c2Cl)CC1 (centres unmarked) [Compound R10, 3-Chloro-4,7-difluoro-benzo[b]thiophene-2-carboxylic acid[5-(6-methanesulfonylamino-pyridin-3-yl)-2-methoxy-benzyl]-(4-methylamino-cyclohexyl)-amide dihydrochloride] | < 0.05 | < 0.05 |
| < 0.05 | – | CNC1CCC(N(Cc2cc(-c3ccc(N)nc3)ccc2OC)C(=O)c2sc3ccccc3c2Cl)CC1 (centres unmarked) [Compound 319, 3-Chloro-benzo[b]thiophene-2-carboxylic acid [5-(6-aminopyridin-3-yl)-2-methoxy-benzyl]-(4-methylamino-cyclohexyl)-amide dihydrochloride] | < 0.05 | < 0.05 |
| – | < 0.05 | CNC1CCC(N(Cc2cc(-c3ccncc3)ccc2O)C(=O)c2sc3c(F)ccc(F)c3c2Cl)CC1 (centres unmarked) [Compound 368, 3-Chloro-4,7-difluoro-benzo[b]thiophene-2-carboxylic acid (2-hydroxy-5-pyridin-4-yl-benzyl)-(4-methylamino-cyclohexyl)-amide dihydrochloride] | < 0.05 | < 0.05 |
| < 0.05 | – | CNC1CCC(N(Cc2cc(-c3ccc(C(N)=O)cc3)ccc2OC)C(=O)c2sc3ccccc3c2Cl)CC1 (centres unmarked) [Compound 316, 3-Chloro-benzo[b]thiophene-2-carboxylic acid (4′-carbamoyl-4-methoxy-biphenyl-3-ylmethyl)-(4-methylamino-cyclohexyl)-amide hydrochloride] | < 0.05 | < 0.05 |
| < 0.05 | < 0.05 | CN[C@H]1CC[C@@H](N(Cc2cc(-c3ccc(S(C)(=O)=O)cc3)ccc2OC)C(=O)C2=C(Cl)c3c(C)ccc(C)c3C2)CC1 [Compound 335, 3-Chloro-4,7-difluoro-benzo[b]thiophene-2-carboxylic acid(4′-methanesulfonyl-4-methoxy-biphenyl-3-ylmethyl)-(4-methylamino-cyclohexyl)-amide hydrochloride] | < 0.05 | < 0.05 |
| < 0.05 | < 0.05 | CNc1cc(-c2ccc(OC)c(CN(C(=O)c3sc4c(F)ccc(F)c4c3Cl)C3CCC(NC)CC3)c2)ccn1 (centres unmarked) [Compound 357, 3-Chloro-4,7-difluoro-benzo[b]thiophene-2-carboxylic acid[2-methoxy-5-(2-methylamino-pyridin-4-yl)-benzyl]-(4-methylamino-cyclohexyl)-amide bis(trifluoroacetate)] | < 0.05 | < 0.05 |
| < 0.05 | < 0.05 | CN[C@H]1CC[C@@H](N(Cc2cc(-c3ccc(CO)cc3)ccc2OC)C(=O)c2sc3c(C)ccc(C)c3c2Cl)CC1 [Compound 338, 3-Chloro-4,7-difluoro-benzo[b]thiophene-2-carboxylic acid(4′-hydroxymethyl-4-methoxy-biphenyl-3-ylmethyl)-(4-methylamino-cyclohexyl)-amide trifluoroacetate] | < 0.05 | < 0.05 |
| < 0.05 | – | CNC1CCC(N(Cc2cc(-c3ccc(CO)cc3)ccc2OC)C(=O)c2sc3ccccc3c2Cl)CC1 (centres unmarked) [Compound 329, 3-Chloro-benzo[b]thiophene-2-carboxylic acid (4′-hydroxymethyl-4-methoxy-biphenyl-3-ylmethyl)-(4-methylamino-cyclohexyl)-amide hydrochloride] | < 0.05 | < 0.05 |
| < 0.05 | < 0.05 | CNC1CCC(N(Cc2cc(-c3ccccn3)ccc2OC)C(=O)c2sc3c(F)ccc(F)c3c2Cl)CC1 (centres unmarked) [Compound 367, 3-Chloro-4,7-difluoro-benzo[b]thiophene-2-carboxylic acid (2-methoxy-5-pyridin-2-yl-benzyl)-(4-methylamino-cyclohexyl)-amide dihydrochloride] | < 0.05 | < 0.05 |
| < 0.05 | < 0.05 | CNC1CCC(N(Cc2cc(-c3ccc(C(C)=O)cc3)ccc2OC)C(=O)c2sc3c(F)ccc(F)c3c2Cl)CC1 (centres unmarked) [Compound 332, 3-Chloro-4,7-difluoro-benzo[b]thiophene-2-carboxylic acid (4′-acetyl-4-methoxy-biphenyl-3-ylmethyl)-(4-methylamino-cyclohexyl)-amide hydrochloride] | < 0.05 | < 0.05 |
| < 0.05 | < 0.05 | CC[C@H]1CC[C@@H](N(Cc2cc(-c3ccc(C)cc3)ccc2OC)C(=O)C2=C(C)c3c(C)ccc(C)c3C2)CC1 [Compound 334, 3-Chloro-4,7-difluoro-benzo[b]thiophene-2-carboxylic acid[2-methoxy-5-(6-methyl-pyridin-3-yl)-benzyl]-(4-methylamino-cyclohexyl)-amide bis(trifluoroacetate)] | < 0.05 | < 0.05 |
| < 0.05 | < 0.05 | CNC1CCC(N(Cc2cc(-c3ccnc(C(=O)OC)c3)ccc2OC)C(=O)c2sc3c(F)ccc(F)c3c2Cl)CC1 (centres unmarked) [Compound R5, Methyl 4-(3-{[(3-chloro-4,7-difluoro-benzo[b]thiophene-2-carbonyl)-(4-methylamino-cyclohexyl)-amino]-methyl}-4-methoxy-phenyl)-pyridine-2-carboxylate] | < 0.05 | < 0.05 |
| < 0.05 | < 0.05 | CN[C@H]1CC[C@@H](N(Cc2cc(-c3ccc(N(C)C(C)=O)cc3)ccc2OC)C(=O)c2sc3c(C)ccc(C)c3c2C)CC1 [Compound 336, 3-Chloro-4,7-difluoro-benzo[b]thiophene-2-carboxylic acid[4′-(acetyl-methyl-amino)-4-methoxy-biphenyl-3-ylmethyl]-(4-methylamino-cyclohexyl)-amide hydrochloride] | < 0.05 | < 0.05 |
| < 0.05 | < 0.05 | CN[C@H]1CC[C@H](N(Cc2cc(-c3ccc(N)nc3)ccc2OC)C(=O)c2sc3cccc(F)c3c2Cl)CC1 [362 (R13), 3-Chloro-4-fluoro-benzo[b]thiophene-2-carboxylic acid[5-(6-amino-pyridin-3-yl)-2-methoxy-benzyl]-(4-methylamino-cyclohexyl)-amide dihydrochloride] | < 0.05 | < 0.05 |

| SMILES | EC50 (sonic hedgehog pathway [1]) [µM] | EC50 (sonic hedgehog pathway [4]) [µM] | EC50 (sonic hedgehog pathway [2]) [µM] | EC50 (sonic hedgehog pathway [3]) [µM] |
| --- | --- | --- | --- | --- |
| CNC1CCC(N(Cc2cc(-c3ccnc(C(N)=O)c3)ccc2OC)C(=O)c2sc3c(F)ccc(F)c3c2Cl)CC1 (centres unmarked) [Compound 354 (R17), 4-(3-{[(3-Chloro-4,7-difluoro-benzo[b]thiophene-2-carbonyl)-(4-methylamino-cyclohexyl)-amino]-methyl}-4-methoxy-phenyl)-pyridine-2-carboxylic acid amide dihydrochloride] | < 0.05 | < 0.05 | < 0.05 | < 0.05 |
| CNC1CCC(N(Cc2cc(-c3ccc(C(=O)N(C)C)cc3)ccc2OC)C(=O)c2sc3ccccc3c2Cl)CC1 (centres unmarked) [Compound 317 (R19), 3-Chloro-benzo[b]thiophene-2-carboxylic acid (4′-dimethylcarbamoyl-4-methoxy-biphenyl-3-ylmethyl)-(4-methylamino-cyclohexyl)-amide hydrochloride] | < 0.05 | – | < 0.05 | < 0.05 |
| CNC1CCC(N(Cc2cc(-c3cccnc3)ccc2OC)C(=O)c2sc3cccc(F)c3c2Cl)CC1 (centres unmarked) [360 (R16), 3-Chloro-4-fluoro-benzo[b]thiophene-2-carboxylic acid (2-methoxy-5-pyridin-3-yl-benzyl)-(4-methylamino-cyclohexyl)-amide dihydrochloride] | < 0.05 | < 0.05 | < 0.05 | < 0.05 |

From patent publication US20120245184A1 (Aderans Research Institute, Inc., priority 2006, published 2012)
